Results published in US11884675B2, “Heterocyclic compounds as triggering receptor expressed on myeloid cells 2 agonists and methods of use” (AMGEN INC., priority 2020, dated 2024).

Each compound was assayed against hTREM2 (Homo sapiens, UniProt Q9NZC2) (assay: TREM2 activity by cellular Syk phosphorylation (AlphaScreen/AlphaLISA) in TREM2/DAP12-HEK cells, used for Examples 1-305). Settings: HEK293 Cells.
Format: cell-based
Design: expressed in transfected cells
Method in brief: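 Phospho-Syk (Tyr525/526) over total Syk quantified by AlphaScreen in lysates of cloned TREM2/DAP12-overexpressing HEK293 cells after 45 min compound treatment at room temperature, 1% final DMSO. Values expressed relative to 100 nM anti-TREM2 antibody (positive) and isotype IgG (negative) controls; curves fitted with 4-parameter logistic model.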

Sequence of hTREM2 (Q9NZC2 19-230): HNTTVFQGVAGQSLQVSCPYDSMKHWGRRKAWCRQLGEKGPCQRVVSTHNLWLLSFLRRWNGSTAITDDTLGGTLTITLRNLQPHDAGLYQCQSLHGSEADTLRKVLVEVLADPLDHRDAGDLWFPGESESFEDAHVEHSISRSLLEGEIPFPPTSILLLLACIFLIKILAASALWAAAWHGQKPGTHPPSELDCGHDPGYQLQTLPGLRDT
Sequence of hTREM2 (O43914 22-113 partner): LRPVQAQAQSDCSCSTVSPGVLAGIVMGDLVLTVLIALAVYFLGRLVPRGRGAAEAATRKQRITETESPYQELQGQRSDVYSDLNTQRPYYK

SMILES | EC50 [µM] | hTREM2 Emax
Cc1ncc([C@@H]2CN(c3nc(-c4ccc(Cl)cc4F)c4cc(C)c(C)nc4n3)CCO2)cn1 (single isomer, unassigned) [Example 106] | 0.05 to 0.5 | +++ (Emax>150 and ≤250)
Cc1cc([C@H]2CN(c3nc(-c4ccc(Cl)cc4F)c4ccc(C)nc4n3)CCO2)ccn1 [Example 88, 4-(4-chloro-2-fluorophenyl)-7-methyl-2-((2S)-2-(2-methyl-4-pyridinyl)-4-morpholinyl)pyrido[2,3-d]pyrimidine] | ≤ 0.05 | ++++ (Emax>250)
CC(C)N1Cc2c(cc(N3CCO[C@@H](c4cnn(C)c4)C3)nc2-c2ccc(Cl)cc2F)C1=O [Example 122, 4-(4-chloro-2-fluorophenyl)-6-((2S)-2-(1-methyl-1H-pyrazol-4-yl)-4-morpholinyl)-2-(2-propanyl)-2,3-dihydro-1H-pyrrolo[3,4-c]pyridin-1-one] | 0.5 to 3 | +++ (Emax>150 and ≤250)
COc1cc([C@H]2CN(c3cc4nc(C)ccc4c(-c4ccc(Cl)cc4F)n3)CCO2)ccn1 [Example 149, 5-(4-chloro-2-fluorophenyl)-7-((2S)-2-(2-methoxy-4-pyridinyl)-4-morpholinyl)-2-methyl-1,6-naphthyridine] | 0.05 to 0.5 | ++++ (Emax>250)
Cc1nc2nc(N3CCO[C@@H](c4cnn(C)c4)C3)nc(C3CCC(Cl)CC3)c2nc1C (mixture of isomers) [Example 165, 4-(trans-4-chlorocyclohexyl)-6,7-dimethyl-2-((2S)-2-(1-methyl-1H-pyrazol-4-yl)-4-morpholinyl) pteridine] | ≤ 0.05 | +++ (Emax>150 and ≤250)
Cc1nc2cc(N3CCO[C@@H](c4cnn(C)c4)C3)cc(-c3ccc(F)cc3F)c2nc1C [Example 164, 5-(2,4-difluorophenyl)-2,3-dimethyl-7-((2S)-2-(1-methyl-1H-pyrazol-4-yl)-4-morpholinyl) quinoxaline] | ≤ 0.05 | ++++ (Emax>250)
CN1Cc2c(cc(N3CCO[C@@H](c4cnn(C)c4)C3)nc2-c2ccc(Cl)cc2F)C1=O [Example 119, 4-(4-chloro-2-fluorophenyl)-2-methyl-6-((2S)-2-(1-methyl-1H-pyrazol-4-yl)-4-morpholinyl)-2,3-dihydro-1H-pyrrolo[3,4-c]pyridin-1-one] | 0.05 to 0.5 | ++ (Emax>100 and ≤150)
Cc1nc2nc(N3CCO[C@@H](c4cnn(C)c4)C3)nc(C3CCC(C)(C)CC3)c2nc1C [Example 130, 4-(4,4-dimethylcyclohexyl)-6,7-dimethyl-2-((2S)-2-(1-methyl-1H-pyrazol-4-yl)-4-morpholinyl) pteridine] | ≤ 0.05 | + (Emax>45 and ≤100)
Cc1nc2nc(N3CCO[C@@H](c4cnn(C)c4)C3)nc(-c3ccc(Cl)cc3F)c2cc1Cl [Example 116, 6-chloro-4-(4-chloro-2-fluorophenyl)-7-methyl-2-((2S)-2-(1-methyl-1H-pyrazol-4-yl)-4-morpholinyl)pyrido[2,3-d]pyrimidine] | ≤ 0.05 | +++ (Emax>150 and ≤250)
CCc1ccc2c(-c3ccc(Cl)cc3F)nc(N3CCO[C@@H](c4cnn(C)c4)C3)cc2n1 [Example 238, (S)-4-(5-(4-chloro-2-fluorophenyl)-2-ethyl-1,6-naphthyridin-7-yl)-2-(1-methyl-1H-pyrazol-4-yl)morpholine] | 3 to 100 | + (Emax>45 and ≤100)
Cc1ccc2c(-c3ccc(Cl)cc3F)nc(N3CCO[C@@H](c4cnn(C)c4)C3)cc2n1 [Example 148, 5-(4-chloro-2-fluorophenyl)-2-methyl-7-((2S)-2-(1-methyl-1H-pyrazol-4-yl)-4-morpholinyl)-1,6-naphthyridine] | 0.05 to 0.5 | +++ (Emax>150 and ≤250)
Cc1cnc2c(-c3ccc(Cl)cc3F)nc(N3CCOC(C4CCOC4)C3)nc2n1 (centres unmarked) [Example 5, 4-(4-chloro-2-fluorophenyl)-7-methyl-2-(2-(tetrahydro-3-furanyl)-4-morpholinyl)pteridine] | 0.5 to 3 | +++ (Emax>150 and ≤250)
Cc1nc2cc(N3CCO[C@@H](c4cnn(C)c4)C3)nc(-c3ccc(Cl)cc3F)c2nc1C [Example 79, 5-(4-chloro-2-fluorophenyl)-2,3-dimethyl-7-((2S)-2-(1-methyl-1H-pyrazol-4-yl)-4-morpholinyl)pyrido[3,4-b]pyrazine] | ≤ 0.05 | ++++ (Emax>250)
Cc1cc([C@H]2CN(c3nc(-c4ccc(Cl)cc4F)c4cc(C)c(C)nc4n3)CCO2)cnn1 (single isomer, unassigned) [Example 104] | ≤ 0.05 | +++ (Emax>150 and ≤250)

Further lines, results first:

EC50 [µM] | hTREM2 Emax | SMILES
≤ 0.05 | +++ (Emax>150 and ≤250) | Cc1cc([C@H]2CN(c3nc4nc(C)c(C)nc4c([C@H]4C[C@H](C(F)(F)F)C4)n3)CCO2)ccn1 [Example 55]
≤ 0.05 | +++ (Emax>150 and ≤250) | Cc1nc2nc(N3CCO[C@@H](c4cnn(C)c4)C3)cc(-c3ccc(F)cc3F)c2nc1C [Example 161, 8-(2,4-difluorophenyl)-2,3-dimethyl-6-((2S)-2-(1-methyl-1H-pyrazol-4-yl)-4-morpholinyl)pyrido [2,3-b]pyrazine]
0.05 to 0.5 | +++ (Emax>150 and ≤250) | Cc1nc2nc(N3CCO[C@@H](c4cnn(C)c4)C3)nc([C@H]3CC[C@@H](C(F)(F)F)CC3)c2nc1C [Example 131, 6,7-dimethyl-2-((2S)-2-(1-methyl-1H-pyrazol-4-yl)-4-morpholinyl)-4-(cis-4-(trifluoromethyl)cyclohexyl)pteridine]
3 to 100 |  | Cc1nc2nc(N3CCO[C@@H](c4cnn(C)c4)C3)nc(N3CCCC(F)(F)C3)c2nc1C [Example 68, 4-(3,3-difluoro-1-piperidinyl)-6,7-dimethyl-2-((2S)-2-(1-methyl-1H-pyrazol-4-yl)-4-morpholinyl)pteridine]
0.5 to 3 | + (Emax>45 and ≤100) | Cc1ccc2c(n1)nc(N1CCO[C@@H](c3cnn(C)c3)C1)nc2[C@H]1C[C@H](C(F)(F)F)C1 [Example 97, 7-methyl-2-((2S)-2-(1-methyl-1H-pyrazol-4-yl)-4-morpholinyl)-4-(trans-3-(trifluoromethyl)cyclobutyl)pyrido[2,3-d]pyrimidine]
≤ 0.05 | ++++ (Emax>250) | Cc1ccc(-c2nc([C@H]3CCO[C@@H](c4ccnc(C)c4)C3)nc3nc(C)c(C)cc23)c(F)c1 (single isomer, unassigned) [Example 222]
0.05 to 0.5 | + (Emax>45 and ≤100) | Cc1cc([C@H]2CN(c3nc(CCC(F)(F)F)c4nc(C)c(C)nc4n3)CCO2)ccn1 [Example 41, 6,7-dimethyl-2-((2S)-2-(2-methyl-4-pyridinyl)-4-morpholinyl)-4-(3,3,3-trifluoropropyl)pteridine]
0.05 to 0.5 | + (Emax>45 and ≤100) | Cc1nc2nc([C@@H]3C[C@@H](C)O[C@@H](c4cnn(C)c4)C3)cc(-c3ccc(Cl)cc3F)c2nc1C [Example 284, 8-(4-chloro-2-fluorophenyl)-2,3-dimethyl-6-((2R,4R,6R)-2-methyl-6-(1-methyl-1H-pyrazol-4-yl)tetrahydro-2H-pyran-4-yl)pyrido[2,3-b]pyrazine]
0.05 to 0.5 | +++ (Emax>150 and ≤250) | Cc1cc2c(-c3ccc(Cl)cc3F)nc(C3CCO[C@H](c4cnn(C)c4)C3)nc2nc1C (stereo in doubt) [Example 277, 4-(4-chloro-2-fluorophenyl)-6,7-dimethyl-2-((2S,4R)-2-(1-methyl-1H-pyrazol-4-yl)tetrahydro-2H-pyran-4-yl)pyrido[2,3-d]pyrimidine]
0.5 to 3 | ++ (Emax>100 and ≤150) | Cc1nc2nc([C@@H]3CCO[C@H](c4cnn(C)c4)C3)nc(-c3ccc(F)cc3F)c2nc1C [Example 256, 4-(2,4-difluorophenyl)-6,7-dimethyl-2-((2S,4R)-2-(1-methyl-1H-pyrazol-4-yl)tetrahydro-2H-pyran-4-yl)pteridine]
≤ 0.05 | +++ (Emax>150 and ≤250) | Cc1cnc2c(-c3ccc(Cl)cc3F)nc([C@H]3CCO[C@@H](c4cnc(C)nc4)C3)nc2n1 (single isomer, unassigned) [Example 173]
0.05 to 0.5 | +++ (Emax>150 and ≤250) | Cc1cc([C@@H]2C[C@H](c3cc4nc(C)c(C)nc4c(-c4ccc(Cl)cc4F)n3)CCO2)ccn1 (relative stereo) [Example 217, 5-(4-chloro-2-fluorophenyl)-2,3-dimethyl-7-((2S,4R)-2-(2-methyl-4-pyridinyl)tetrahydro-2H-pyran-4-yl)pyrido [3,4-b]pyrazine]
0.05 to 0.5 | ++ (Emax>100 and ≤150) | Cc1ccc2c(n1)nc(N1CCO[C@@H](c3cnn(C4CC4)c3)C1)nc2[C@H]1C[C@H](C(F)(F)F)C1 [Example 98, 2-((2S)-2-(1-cyclopropyl-1H-pyrazol-4-yl)-4-morpholinyl)-7-methyl-4-(trans-3-(trifluoromethyl)cyclobutyl)pyrido[2,3-d]pyrimidine]
≤ 0.05 | +++ (Emax>150 and ≤250) | Cc1cc([C@H]2C[C@@H](c3nc4nc(C)c(C)nc4c([C@H]4C[C@H](C(F)(F)F)C4)n3)CCO2)ccn1 (single isomer, unassigned) [Example 215]
0.05 to 0.5 | +++ (Emax>150 and ≤250) | Cc1cc2c(-c3ccc(Cl)cc3F)nc([C@@H]3CCO[C@H](c4cnn(C5CC5)c4)C3)nc2nc1C (single isomer, unassigned) [Example 198]
0.05 to 0.5 | ++ (Emax>100 and ≤150) | Cc1nc2cc(N3CCO[C@@H](c4cnn(C5CC5)c4)C3)nc([C@H]3C[C@H](C(F)(F)F)C3)c2nc1C [Example 81, 7-((2S)-2-(1-cyclopropyl-1H-pyrazol-4-yl)-4-morpholinyl)-2,3-dimethyl-5-(trans-3-(trifluoromethyl)cyclobutyl)pyrido[3,4-b]pyrazine]
